From patent US11780839B2, “Compounds for treating Huntington's disease” (PTC THERAPEUTICS, INC., priority 2018, dated 2023)

System: Endogenous Huntingtin Protein
Assay: Endogenous Huntingtin Protein Assay (ELISA-based Meso Scale Discovery electrochemiluminescence)
Format: cell-based
Settings: MSD electrochemiluminescence, Table 1
Method in brief: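 Sandwich MSD electrochemiluminescence immunoassay. Capture used MW1 (expanded polyglutamine) or MAB2166 antibody coated at 1 μg/mL overnight at 4 °C. Samples were bound overnight at 4 °C, then a rabbit monoclonal detection antibody and SULFO-TAG anti-rabbit, each at 0.25 μg/mL, were applied for 1 h at room temperature.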

Row | Compound | IC50
1 | CN(c1ncc(-c2ccc(-n3ncc4ccncc43)cc2O)nn1)C1CC(C)(C)NC(C)(C)C1 [Cpd 381, 2-{3-[methyl(2,2,6,6-tetramethylpiperidin-4-yl)amino]-1,2,4-triazin-6-yl}-5-(1H-pyrazolo[3,4-c]pyridin-1-yl)phenol] | ≤ 100 nM
2 | CN(c1cnc(-c2ccc(-c3ccncc3)cc2O)nn1)C1CC(C)(C)NC(C)(C)C1 [Cpd 382, 2-{6-[methyl(2,2,6,6-tetramethylpiperidin-4-yl)amino]-1,2,4-triazin-3-yl}-5-(pyridin-4-yl)phenol] | ≤ 100 nM
3 | CN(c1ncc(-c2ccc(-c3cc(F)c4[nH]ncc4c3)cc2O)nn1)C1CC(C)(C)NC(C)(C)C1 [Cpd 383, 5-(7-fluoro-1H-indazol-5-yl)-2-{3-[methyl(2,2,6,6-tetramethylpiperidin-4-yl)amino]-1,2,4-triazin-6-yl}phenol] | ≤ 100 nM
4 | CN(c1cnc(-c2ccc(-c3cccnc3)cc2O)nn1)C1CC(C)(C)NC(C)(C)C1 [Cpd 384, 2-{6-[methyl(2,2,6,6-tetramethylpiperidin-4-yl)amino]-1,2,4-triazin-3-yl}-5-(pyridin-3-yl)phenol] | ≤ 100 nM
5 | Oc1cc(-c2cn[nH]c2)ccc1-c1cnc(N2CCC(CNC3CCCC3)C2)nn1 (stereo not drawn) [Cpd 386, 2-(3-{3-[(cyclopentylamino)methyl]pyrrolidin-1-yl}-1,2,4-triazin-6-yl)-5-(1H-pyrazol-4-yl)phenol] | 100 to 500 nM
6 | Oc1cc(-c2cn[nH]c2)ccc1-c1cnc(N2CCC(CNC3CC3)C2)nn1 (stereo not drawn) [Cpd 392, 2-(3-{3-[(cyclopropylamino)methyl]pyrrolidin-1-yl}-1,2,4-triazin-6-yl)-5-(1H-pyrazol-4-yl)phenol] | ≤ 100 nM

Second part, the molecule after the results:

Row | IC50 | Compound
7 | ≤ 100 nM | CC(C)(C)N[C@H]1CCN(c2ncc(-c3ccc(-c4c[nH]nc4F)cc3O)nn2)C1 [Cpd 378, 2-{3-[(3S)-3-(tert-butylamino)pyrrolidin-1-yl]-1,2,4-triazin-6-yl}-5-(3-fluoro-1H-pyrazol-4-yl)phenol]
8 | ≤ 100 nM | CC(C)(C)N[C@@H]1CCN(c2ncc(-c3ccc(-c4c[nH]nc4F)cc3O)nn2)C1 [Cpd 379, 2-{3-[(3R)-3-(tert-butylamino)pyrrolidin-1-yl]-1,2,4-triazin-6-yl}-5-(3-fluoro-1H-pyrazol-4-yl)phenol]
9 | ≤ 100 nM | CNc1cc(-c2ccc(-c3cnc(N4CCC(NC)C4)nn3)c(O)c2)ncn1 (stereo not drawn) [Cpd 380, 5-[6-(methylamino)pyrimidin-4-yl]-2-{3-[3-(methylamino)pyrrolidin-1-yl]-1,2,4-triazin-6-yl}phenol]
10 | ≤ 100 nM | C[C@@H]1CN(c2ncc(-c3ccc(-c4ccc5nccn5n4)cc3O)nn2)C[C@H](C)N1 [Cpd 385, 2-{3-[(3R,5S)-3,5-dimethylpiperazin-1-yl]-1,2,4-triazin-6-yl}-5-(imidazo[1,2-b]pyridazin-6-yl)phenol]
11 | ≤ 100 nM | Oc1cc(-c2cn[nH]c2)ccc1-c1cnc(N2CCC(C3CCCN3)C2)nn1 (stereo not drawn) [Cpd 387, 2-[3-([2,3’-bipyrrolidin]-l’-yl)-1,2,4-triazin-6-yl]-5-(1H-pyrazol-4-yl)phenol]
12 | ≤ 100 nM | Oc1cc(-c2cn[nH]c2)ccc1-c1cnc(N2CCC(CNCc3ccccn3)C2)nn1 (stereo not drawn) [Cpd 388, 5-(1H-pyrazol-4-yl)-2-{3-[-({[(pyridin-2-yl)methyl]amino}methyl)pyrrolidin-1-yl]-1,2,4-triazin-6-yl}phenol]
13 | ≤ 100 nM | Cn1cc(-c2ccc(-c3cnc(N4CCC(C)(N)C4)nn3)c(O)c2)cn1 (stereo not drawn) [Cpd 389, 2-[3-(3-amino-3-methylpyrrolidin-1-yl)-1,2,4-triazin-6-yl]-5-(1-methyl-1H-pyrazol-4-yl)phenol]
14 | ≤ 100 nM | CC(C)(C)NCC1CCN(c2ncc(-c3ccc(-c4cn[nH]c4)cc3O)nn2)C1 (stereo not drawn) [Cpd 390, 2-(3-{3-[(tert-butylamino)methyl]pyrrolidin-1-yl}-1,2,4-triazin-6-yl)-5-(1H-pyrazol-4-yl)phenol]
15 | ≤ 100 nM | CC1(NCC2CCN(c3ncc(-c4ccc(-c5cn[nH]c5)cc4O)nn3)C2)CCOCC1 (stereo not drawn) [Cpd 391, 2-[3-(3-{[(4-methyloxan-4-yl)amino]methyl}pyrrolidin-1-yl)-1,2,4-triazin-6-yl]-5-(1H-pyrazol-4-yl)phenol]
